Experimental data reported in PMC12715762, “Discovery of VU6052254: A Novel, Potent M1 Positive Allosteric Modulator” (ACS Chemical Neuroscience, 2025).

Legend:
[1] = plasma protein binding, equilibrium dialysis (dog); format: in vitro ADME; conditions: pH 7.4, dog (d), read-out: fu,plasma
Experimental: (§1) Plasma protein binding and Brain homogenate binding: Determination of fraction unbound (f u) in plasma was conducted in vitro via equilibrium dialysis using HTDialysis (HTD) membrane plates. The top half of the plate was filled with 100 uL of Dubelco’s Phosphate Buffered Saline, pH 7.4 (DPBS). Compounds were diluted into plasma from each species (5 µM final concentration), which was aliquoted in triplicate to the ‘bottom half’ of the prepared HTD plate wells. The HTD plate was sealed and incubated for 6 hours at 37 °C. Following incubation, each well (both top and bottom halves) were transferred (20 µL) to the corresponding wells of a 96-shallow-well (V-bottom) plate. […]
(§2) The unbound fraction (f u) was calculated following the equation below, and mean values for each species were calculated from 3 replicates.
(§3) A similar approach was used to determine the degree of brain homogenate binding, which employed the same methodology and procedure with the following modifications: 1) a final compound concentration of 1 μM was used, 2) naïve rat brains were homogenized in DPBS (1:3 composition of brain: DPBS, w/w) using a Mini-Bead Beater™ machine in order to obtain brain homogenate, which was then treated in the same manner as the plasma samples in the previously described plasma protein binding assay. Fraction unbound for both plasma and brain samples was determined using Equation 4. […]

[2] = brain homogenate binding (rat); format: in vitro ADME; conditions: pH 7.4, rat (r), read-out: fu,brain
Experimental: as §1, §2, §3

[3] = molecular target: CYP 2C19 (Homo sapiens, UniProt P33261); assay: CYP450 inhibition; format: in vitro ADME
Chain of CYP 2C19 (P33261 whole entry): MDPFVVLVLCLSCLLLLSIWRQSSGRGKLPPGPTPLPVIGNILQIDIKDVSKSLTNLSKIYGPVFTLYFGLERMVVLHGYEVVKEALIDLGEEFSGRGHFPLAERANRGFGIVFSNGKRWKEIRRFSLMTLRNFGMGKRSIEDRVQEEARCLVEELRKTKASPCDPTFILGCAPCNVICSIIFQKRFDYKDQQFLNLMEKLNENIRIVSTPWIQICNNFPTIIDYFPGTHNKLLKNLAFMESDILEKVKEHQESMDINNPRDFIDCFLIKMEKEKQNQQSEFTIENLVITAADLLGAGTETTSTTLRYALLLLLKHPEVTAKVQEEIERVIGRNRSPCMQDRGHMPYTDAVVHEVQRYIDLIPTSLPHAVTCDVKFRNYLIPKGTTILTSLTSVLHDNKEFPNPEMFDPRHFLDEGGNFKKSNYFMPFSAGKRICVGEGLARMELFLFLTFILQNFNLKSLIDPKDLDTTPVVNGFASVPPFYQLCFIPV

[4] = IV/PO pharmacokinetics (dog); format: in vivo; conditions: Dog (beagle)
[5] = test system: 2B6; assay: CYP450 induction in human hepatocytes (three donors); format: cell-based; conditions: 10 μM, human hepatocytes from three donors
[6] = rat oral dose escalation PK study; format: in vivo; conditions: for AUC(0-t) / Cmax / AUC / Tmax: Sprague-Dawley, plasma; for Cmax / AUC / Tmax: rat, po
Experimental: Pharmacokinetic profiles in rats following oral single escalating doses Single escalating oral dosing in Sprague-Dawley rats was performed at Frontage Laboratories according to their non-GLP Standard Operating Procedure and IACUC protocols. In short, […]
arterial blood was collected from a femoral artery catheter, and compound concentration was determined in plasma by LC-MS/MS following their non-GLP protocol. PK parameters were determined using Phoenix WinNonlin software (version 6.3). […]

[7] = molecular target: Estrogen ERα (Homo sapiens, UniProt P03372); assay: Eurofins radioligand binding
Chain of Estrogen ERα (P03372 whole entry): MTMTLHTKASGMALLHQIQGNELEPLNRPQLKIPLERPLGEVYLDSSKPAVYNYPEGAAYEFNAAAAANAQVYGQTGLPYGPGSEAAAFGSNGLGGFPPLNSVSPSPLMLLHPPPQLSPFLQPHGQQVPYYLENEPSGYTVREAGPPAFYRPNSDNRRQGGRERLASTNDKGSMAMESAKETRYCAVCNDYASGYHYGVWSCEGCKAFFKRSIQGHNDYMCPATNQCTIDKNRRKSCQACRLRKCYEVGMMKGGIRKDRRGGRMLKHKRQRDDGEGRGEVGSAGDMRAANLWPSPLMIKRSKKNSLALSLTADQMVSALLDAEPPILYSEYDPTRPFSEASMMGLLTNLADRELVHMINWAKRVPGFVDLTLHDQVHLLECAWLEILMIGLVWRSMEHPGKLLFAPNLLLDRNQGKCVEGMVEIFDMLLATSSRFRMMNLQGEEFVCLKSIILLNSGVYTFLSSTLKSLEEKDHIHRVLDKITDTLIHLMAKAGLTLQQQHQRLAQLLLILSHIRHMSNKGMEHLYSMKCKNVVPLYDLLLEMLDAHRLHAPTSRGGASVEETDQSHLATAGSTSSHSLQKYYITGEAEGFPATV

[8] = test system: Glutamate, NMDA, Phencyclidine; assay: Eurofins radioligand binding; conditions: Rat
[9] = molecular target: Leukotriene, Cysteinyl CysLT1 (Homo sapiens, UniProt Q9Y271); assay: Eurofins radioligand binding
Chain of Leukotriene, Cysteinyl CysLT1 (Q9Y271 whole entry): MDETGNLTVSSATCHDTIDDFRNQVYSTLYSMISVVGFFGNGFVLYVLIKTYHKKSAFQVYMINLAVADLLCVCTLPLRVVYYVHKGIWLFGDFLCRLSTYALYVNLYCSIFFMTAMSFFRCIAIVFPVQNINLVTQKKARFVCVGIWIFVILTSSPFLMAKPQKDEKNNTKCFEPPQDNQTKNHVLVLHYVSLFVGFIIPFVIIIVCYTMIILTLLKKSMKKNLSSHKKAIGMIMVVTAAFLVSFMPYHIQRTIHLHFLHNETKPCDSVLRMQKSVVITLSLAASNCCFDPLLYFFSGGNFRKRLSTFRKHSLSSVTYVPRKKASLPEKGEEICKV

[10] = molecular target: Melatonin MT1 (Homo sapiens, UniProt P48039); assay: Eurofins radioligand binding
Chain of Melatonin MT1 (P48039 whole entry): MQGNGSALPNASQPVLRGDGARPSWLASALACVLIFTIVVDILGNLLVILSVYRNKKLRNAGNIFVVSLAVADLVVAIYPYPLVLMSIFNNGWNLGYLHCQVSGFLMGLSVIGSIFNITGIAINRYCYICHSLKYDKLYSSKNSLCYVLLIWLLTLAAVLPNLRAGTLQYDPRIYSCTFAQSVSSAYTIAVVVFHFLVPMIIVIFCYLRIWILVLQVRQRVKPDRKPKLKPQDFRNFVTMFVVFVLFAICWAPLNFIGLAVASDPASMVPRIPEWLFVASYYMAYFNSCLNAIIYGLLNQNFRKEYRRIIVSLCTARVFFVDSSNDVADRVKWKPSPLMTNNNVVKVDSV

[11] = molecular target: Neuropeptide Y Y2 (Homo sapiens, UniProt P49146); assay: Eurofins radioligand binding
Chain of Neuropeptide Y Y2 (P49146 whole entry): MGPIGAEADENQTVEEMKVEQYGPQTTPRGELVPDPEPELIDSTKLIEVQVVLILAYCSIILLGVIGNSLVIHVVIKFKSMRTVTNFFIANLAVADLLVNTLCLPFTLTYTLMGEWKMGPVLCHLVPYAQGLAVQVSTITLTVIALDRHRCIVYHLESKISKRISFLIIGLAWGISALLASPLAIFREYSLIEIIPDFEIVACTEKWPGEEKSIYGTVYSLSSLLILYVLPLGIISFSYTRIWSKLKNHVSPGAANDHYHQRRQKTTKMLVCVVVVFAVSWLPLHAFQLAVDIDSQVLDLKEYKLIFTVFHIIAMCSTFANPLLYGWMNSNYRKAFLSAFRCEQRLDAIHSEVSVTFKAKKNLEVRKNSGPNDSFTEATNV

[12] = test system: Purinergic P2Y, Non-Selective; assay: Eurofins radioligand binding; conditions: Rat
[13] = molecular target: Serotonin (5-HT2B) (Homo sapiens, UniProt P41595); assay: Eurofins radioligand binding
Chain of Serotonin (5-HT2B) (P41595 whole entry): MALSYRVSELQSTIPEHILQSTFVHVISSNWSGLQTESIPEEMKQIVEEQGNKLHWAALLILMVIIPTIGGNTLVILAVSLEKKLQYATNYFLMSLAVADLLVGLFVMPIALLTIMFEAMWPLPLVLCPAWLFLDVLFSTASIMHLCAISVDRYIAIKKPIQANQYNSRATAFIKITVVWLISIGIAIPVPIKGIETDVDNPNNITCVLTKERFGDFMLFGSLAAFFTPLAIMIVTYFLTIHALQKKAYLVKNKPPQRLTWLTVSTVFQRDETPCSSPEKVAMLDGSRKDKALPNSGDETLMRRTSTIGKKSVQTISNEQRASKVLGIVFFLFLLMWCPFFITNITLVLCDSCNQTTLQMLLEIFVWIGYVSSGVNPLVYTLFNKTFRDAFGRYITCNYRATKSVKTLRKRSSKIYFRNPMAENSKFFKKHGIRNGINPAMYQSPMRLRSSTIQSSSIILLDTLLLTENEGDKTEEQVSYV

[14] = test system: Sodium Channel, Site 2; assay: Eurofins radioligand binding; conditions: Site 2, Rat
[15] = molecular target: Tachykinin NK1 (Homo sapiens, UniProt P25103); assay: Eurofins radioligand binding
Chain of Tachykinin NK1 (P25103 whole entry): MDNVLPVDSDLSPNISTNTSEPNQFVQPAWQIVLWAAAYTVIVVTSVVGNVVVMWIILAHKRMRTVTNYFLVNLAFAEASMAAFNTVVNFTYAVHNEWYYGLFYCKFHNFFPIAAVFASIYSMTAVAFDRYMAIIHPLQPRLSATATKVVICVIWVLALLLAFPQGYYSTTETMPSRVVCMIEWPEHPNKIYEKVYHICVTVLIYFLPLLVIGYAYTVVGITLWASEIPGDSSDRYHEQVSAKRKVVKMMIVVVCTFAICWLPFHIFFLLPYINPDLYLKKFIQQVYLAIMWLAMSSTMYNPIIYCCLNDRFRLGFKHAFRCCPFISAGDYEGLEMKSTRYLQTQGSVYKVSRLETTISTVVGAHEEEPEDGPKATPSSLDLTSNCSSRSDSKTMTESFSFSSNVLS

[16] = molecular target: Transporter, Dopamine (DAT) (Homo sapiens, UniProt Q01959); assay: Eurofins radioligand binding
Chain of Transporter, Dopamine (DAT) (Q01959 whole entry): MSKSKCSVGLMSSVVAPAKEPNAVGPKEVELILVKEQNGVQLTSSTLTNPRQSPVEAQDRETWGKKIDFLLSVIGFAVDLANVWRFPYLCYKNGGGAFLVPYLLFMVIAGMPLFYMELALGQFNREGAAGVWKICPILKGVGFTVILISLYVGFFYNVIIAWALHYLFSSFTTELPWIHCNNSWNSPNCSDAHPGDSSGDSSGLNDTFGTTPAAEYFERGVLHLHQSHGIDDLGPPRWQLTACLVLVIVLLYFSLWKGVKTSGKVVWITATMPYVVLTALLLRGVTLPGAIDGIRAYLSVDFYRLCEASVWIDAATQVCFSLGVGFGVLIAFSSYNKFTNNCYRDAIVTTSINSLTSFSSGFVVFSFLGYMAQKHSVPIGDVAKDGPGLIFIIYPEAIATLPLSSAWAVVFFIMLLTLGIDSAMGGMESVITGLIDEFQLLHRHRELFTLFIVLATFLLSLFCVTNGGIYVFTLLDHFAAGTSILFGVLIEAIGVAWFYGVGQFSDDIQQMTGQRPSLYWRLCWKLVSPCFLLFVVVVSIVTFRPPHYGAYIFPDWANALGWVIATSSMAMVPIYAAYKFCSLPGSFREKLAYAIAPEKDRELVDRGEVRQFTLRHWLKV

[17] = molecular target: Transporter, GABA (Rattus norvegicus, UniProt P23978); assay: Eurofins radioligand binding
[18] = 10 mg/kg, rat PO 10 mpk, 10% Tween
[19] = 10 mg/kg, rat PO 10 mpk, 100% PEG
[20] = 30 mg/kg, rat PO 30 mpk, 10% Tween
[21] = 30 mg/kg, rat PO 30 mpk, 100% PEG
[22] = 100 mg/kg, rat PO 100 mpk, 10% Tween
[23] = 100 mg/kg, rat PO 100 mpk, 100% PEG

Compound Cn1cc2c(-c3cc(F)c(CN4Cc5ncccc5C4=O)c(F)c3)ccc(C(C)(C)O)c2n1 [compound 7] has a fraction unbound at 6 h, 5 µM [1] of 0.117, a fraction unbound at 6 h, 1 μM [2] of 0.027 and an IC50 [3] of over 30 µM. The “F (%) po” value ([4]; 3 mg/kg po) was 65%, the clearance ([4]; plasma, 1 mg/kg iv, read-out: CLp) was 8.4 mL/min/kg and the half-life ([4]; plasma, 1 mg/kg iv, read-out: Elimination t1/2 (converted)) was 4.1 h. For the same compound, the Vd ([4]; plasma, 1 mg/kg iv, read-out: Vss) was 2.3 L/kg, the AUC ([4]; plasma, 3 mg/kg po) was 9 µM·h and the Cmax ([4]; plasma, 3 mg/kg po) was 700 nM. It also gave a Tmax ([4]; plasma, 3 mg/kg po) of 1.33 h, a 2B6 induction [5] of 11.5% and an AUC(0-t) ([6]; rat PO 10 mg/kg, 10% aqueous Tween 80 suspension) of 23800 ng·h/mL. The AUC(0-t) ([6]; rat PO 30 mg/kg, 10% aqueous Tween 80 suspension) was 66500 ng·h/mL, the AUC(0-t) ([6]; rat PO 100 mg/kg, 10% aqueous Tween 80 suspension) was 96200 ng·h/mL and the Cmax ([6]; 10 mg/kg, rat PO 10 mg/kg, 10% aqueous Tween 80 suspension) was 2340 ng/mL. It also gave an AUC [6, 18] of 23800 ng·h/mL, a Tmax [6, 18] of 2.17 h and an AUC [6, 19] of 20600 ng·h/mL. For the same compound, the Cmax [6, 19] was 2390 ng/mL, the Tmax [6, 19] was 3.33 h and the Cmax ([6]; 30 mg/kg, rat PO 30 mg/kg, 10% aqueous Tween 80 suspension) was 7640 ng/mL. For the same compound, the AUC [6, 20] was 66700 ng·h/mL, the Tmax [6, 20] was 2.67 h and the AUC [6, 21] was 115000 ng·h/mL. It also gave a Cmax [6, 21] of 12200 ng/mL, a Tmax [6, 21] of 4 h and a Cmax ([6]; 100 mg/kg, rat PO 100 mg/kg, 10% aqueous Tween 80 suspension) of 10900 ng/mL. For the same compound, the AUC [6, 22] was 96800 ng·h/mL, the Tmax [6, 22] was 4 h and the AUC [6, 23] was 316000 ng·h/mL. The Cmax [6, 23] was 24700 ng/mL, the Tmax [6, 23] was 4 h and the “cholinergic signs or adverse events in rat dose escalation” value ([6]; result in words) was “no cholinergic signs or adverse events were noted in rats”. For the same compound, the inhibition at 10 µM [7] was 12%, the “% Inhibition at 10 µM” value [8] was -1% and the inhibition at 10 µM [9] was 8%. For the same compound, the inhibition at 10 µM [10] was -1%, the inhibition at 10 µM [11] was -9% and the “% Inhibition at 10 µM” value [12] was 21%. The inhibition at 10 µM [13] was 20%, the “% Inhibition at 10 µM” value [14] was 22% and the inhibition at 10 µM [15] was 4%. It also gave an inhibition at 10 µM [16] of 7% and an inhibition at 10 µM [17] of -12%.
